{"source": "patent US20080206149A1", "about": "“METHOD, DYE AND MEDICAMENT FOR STAINING THE INTERNAL LIMITING MEMBRANE, EPIRETINAL MEMBRANE, THE VITREOUS AND/OR THE CAPSULE OF AN EYE” (LUDWIG-MAXIMILIANS-UNIVERSITAT MUNCHEN, priority 2005, published 2008)", "test_system": "primary RPE cells", "test": "Life-dead assay (propidium iodide / Hoechst 33342), primary RPE cells", "assay_type": "cell-based", "conditions": "primary RPE cells, 0.2% and 0.02% dye, 24 hours after treatment, compared to BSS plus", "protocol": "Invest Ophthalmol Vis Sci 2002; 43: 3575-82.\nConfluent RPE and ARPE-19 cells were prepared and treated as described above. Cell viability was quantified based on a two-color fluorescence assay in which the nuclei of nonviable cells appear red because of staining by the membrane-impermeable dye propidium iodide (Sigma), whereas the nuclei of all cells were stained with the membrane-permeable dye Hoechst 33342 (Intergen, Purchase, N.Y.). […] For evaluation of cell viability, cells were washed in PBS and incubated with 2.0 μg/mL propidium iodide and 1.0 μg/mL Hoechst 33342 for 20 minutes at 37° C. Subsequently, cells were analyzed with an epifluorescence microscope (Axioskop; Zeiss, Göttingen, Germany). The labeled nuclei were then counted in fluorescence photomicrographs, and dead cells were expressed as a percentage of total nuclei in the field. The data are based on counts from three experiments performed in duplicate wells, with three to five documented representative fields per well.", "data": [{"smiles": "O=S1(=O)OC(c2cc(Br)c(O)c(Br)c2)(c2cc(Br)c(O)c(Br)c2)c2ccccc21", "note": "[Bromophenol blue, Bromophenole blue]", "values": [{"measurement": "cell viability, nuclei of nonviable cells labeled with propidium iodide", "value": "did not affect cell survival"}]}]}
